Measurements published in patent publication US11919878B1, “9-(2-hydroxypyridin-3-yl)-10-(2-phenylethyl)-3,3,6,6-tetramethyl-3,4,6,7,9,10-hexahydroacridine1,8(2H,5H)-dione as an antimicrobial compound” (KING FAISAL UNIVERSITY, priority 2023, dated 2024).

Assays:
Assay in all cases: Antimicrobial screening, agar dilution
Assay type in all cases: cell-based
Details in all cases: after 10, 20, 40 and 60 minutes at all dilutions 1:100, 1:200, 1:400, 1:800
Escherichia coli = test system: Escherichia coli
Experimental: (§1) The antibacterial properties of the synthesized compound compound (9-(2-hydroxypyridin-3-yl)-10-(2-phenylethyl)-3,3,6,6-tetramethyl-3,4,6,7,9,10-hexahydroacridine1,8(2H,5H)-dione) were studied by the method of agar dilution. Test solutions of each compound was prepared in concentration of 1% using dimethylformamide as a solvent then they are diluted in physiological solution to obtain the final experimental dilutions 1:100, 1:200, 1:400, 1:800. The effect of these substances are compared with furacillin in a controllable study. The testing microbes used were gram positive bacteria Staphylococcus aureus, gram negative bacteria Pseudomonas aeruginosa and Escherichia coli and Candida albicans fungus. The experiments used for this survey were meat-pentonlu agar (EPA) for cultivation of bacteria and Saburo enviromnent for the fungus. Each experiment used 1 mL of test solution on each plate […]. Two drops of emulsified with microbes feel were added. All experimental samples were taken from the agar after 10, 20, 40, 60 minutes in the environment on the basis of Patrk planted. The bacteria were cultivated at a temperature: of 37° C for 1 day and the mushroom was kept in a thermostat for […] at a temperature of 28° C. Then results were checked.

Candida albicans = test system: Candida albicans
Experimental: as §1

Pseudomonas aeruginosa = test system: Pseudomonas aeruginosa
Experimental: as §1

Staphylococcus aureus = test system: Staphylococcus aureus
Experimental: as §1

Measured: inhibition activity (in words)

CC1(C)CC(=O)C2=C(C1)N(CCc1ccccc1)C1=C(C(=O)CC(C)(C)C1)C2c1cccnc1O [9-(2-hydroxypyridin-3-yl)-10-(2-phenylethyl)-3,3,6,6-tetramethyl-3,4,6,7,9,10-hexahydroacridine1,8(2H,5H)-dione]
highest inhibition activity: all assays above
